Laboratory results from patent US11981658B2, “Substituted aminopyridine compounds as EGFR inhibitors” (YUHAN CORPORATION, priority 2021, dated 2024).
Where two headings read alike, the source gives them in different places.

Tests used:
EGFR Del19/C797S = EGFR Del19/C797S (Homo sapiens, UniProt P00533, C797S/DEL746-750); assay: Biochemical EGFR kinase inhibition assay (Lance Ultra TR-FRET), double mutant del19/C797S
Procedure, shortened: (§1)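 In this biochemical assay, phosphorylation after a one-hour room-temperature reaction was detected with europium-labelled anti-phosphopeptide antibody at 2 nM final concentration.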

EGFR L858R/T790M/C797S = EGFR L858R/T790M/C797S (Homo sapiens, UniProt P00533, C797S/L858R/T790M); assay: Biochemical EGFR kinase inhibition assay (Lance Ultra TR-FRET), triple mutant L858R/T790M/C797S
Procedure, shortened: as §1

EGFR Del19/T790M/C797S = EGFR Del19/T790M/C797S (Homo sapiens, UniProt P00533, C797S/DEL746-750/T790M); assay: Biochemical EGFR kinase inhibition assay (Lance Ultra TR-FRET), triple mutant del19/T790M/C797S
EGFR Del19/T790M/C797S, sequence (P00533 with tags, fused parts or gaps DEL746-750/T790M/C797S): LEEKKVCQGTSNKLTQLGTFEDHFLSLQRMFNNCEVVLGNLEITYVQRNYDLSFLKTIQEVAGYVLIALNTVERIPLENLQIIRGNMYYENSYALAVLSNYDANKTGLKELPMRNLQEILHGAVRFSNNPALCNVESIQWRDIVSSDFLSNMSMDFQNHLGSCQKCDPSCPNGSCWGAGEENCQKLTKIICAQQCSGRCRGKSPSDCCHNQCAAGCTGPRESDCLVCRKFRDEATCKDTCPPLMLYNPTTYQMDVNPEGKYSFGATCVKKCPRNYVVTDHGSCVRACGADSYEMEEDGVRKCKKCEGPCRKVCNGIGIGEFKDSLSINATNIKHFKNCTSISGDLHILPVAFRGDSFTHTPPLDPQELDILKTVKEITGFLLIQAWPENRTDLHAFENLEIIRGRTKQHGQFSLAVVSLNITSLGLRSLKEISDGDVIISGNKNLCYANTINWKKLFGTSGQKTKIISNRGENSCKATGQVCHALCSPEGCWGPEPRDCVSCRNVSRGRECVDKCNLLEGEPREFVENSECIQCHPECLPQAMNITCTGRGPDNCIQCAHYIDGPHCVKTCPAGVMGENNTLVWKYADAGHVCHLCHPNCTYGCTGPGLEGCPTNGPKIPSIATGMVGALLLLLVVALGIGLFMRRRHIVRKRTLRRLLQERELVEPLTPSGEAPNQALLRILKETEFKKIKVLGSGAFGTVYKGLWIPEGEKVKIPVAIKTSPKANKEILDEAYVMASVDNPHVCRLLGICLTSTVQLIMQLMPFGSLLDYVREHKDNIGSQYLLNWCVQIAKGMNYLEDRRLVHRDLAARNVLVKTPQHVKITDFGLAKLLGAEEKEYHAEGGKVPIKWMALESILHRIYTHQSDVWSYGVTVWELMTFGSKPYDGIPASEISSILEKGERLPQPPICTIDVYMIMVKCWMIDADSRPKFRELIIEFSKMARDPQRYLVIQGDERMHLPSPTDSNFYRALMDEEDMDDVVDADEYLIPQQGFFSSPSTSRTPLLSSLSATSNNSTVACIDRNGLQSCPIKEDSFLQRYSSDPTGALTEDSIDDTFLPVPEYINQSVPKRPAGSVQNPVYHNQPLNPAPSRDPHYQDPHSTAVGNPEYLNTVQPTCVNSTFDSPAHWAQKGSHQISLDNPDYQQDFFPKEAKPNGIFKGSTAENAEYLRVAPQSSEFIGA
Procedure, shortened: as §1

EGFR wildtype (WT) = EGFR wildtype (WT) (Homo sapiens, UniProt P00533); assay: Biochemical EGFR kinase inhibition assay (Lance Ultra TR-FRET), wildtype
EGFR wildtype (WT), sequence (P00533 25-1210): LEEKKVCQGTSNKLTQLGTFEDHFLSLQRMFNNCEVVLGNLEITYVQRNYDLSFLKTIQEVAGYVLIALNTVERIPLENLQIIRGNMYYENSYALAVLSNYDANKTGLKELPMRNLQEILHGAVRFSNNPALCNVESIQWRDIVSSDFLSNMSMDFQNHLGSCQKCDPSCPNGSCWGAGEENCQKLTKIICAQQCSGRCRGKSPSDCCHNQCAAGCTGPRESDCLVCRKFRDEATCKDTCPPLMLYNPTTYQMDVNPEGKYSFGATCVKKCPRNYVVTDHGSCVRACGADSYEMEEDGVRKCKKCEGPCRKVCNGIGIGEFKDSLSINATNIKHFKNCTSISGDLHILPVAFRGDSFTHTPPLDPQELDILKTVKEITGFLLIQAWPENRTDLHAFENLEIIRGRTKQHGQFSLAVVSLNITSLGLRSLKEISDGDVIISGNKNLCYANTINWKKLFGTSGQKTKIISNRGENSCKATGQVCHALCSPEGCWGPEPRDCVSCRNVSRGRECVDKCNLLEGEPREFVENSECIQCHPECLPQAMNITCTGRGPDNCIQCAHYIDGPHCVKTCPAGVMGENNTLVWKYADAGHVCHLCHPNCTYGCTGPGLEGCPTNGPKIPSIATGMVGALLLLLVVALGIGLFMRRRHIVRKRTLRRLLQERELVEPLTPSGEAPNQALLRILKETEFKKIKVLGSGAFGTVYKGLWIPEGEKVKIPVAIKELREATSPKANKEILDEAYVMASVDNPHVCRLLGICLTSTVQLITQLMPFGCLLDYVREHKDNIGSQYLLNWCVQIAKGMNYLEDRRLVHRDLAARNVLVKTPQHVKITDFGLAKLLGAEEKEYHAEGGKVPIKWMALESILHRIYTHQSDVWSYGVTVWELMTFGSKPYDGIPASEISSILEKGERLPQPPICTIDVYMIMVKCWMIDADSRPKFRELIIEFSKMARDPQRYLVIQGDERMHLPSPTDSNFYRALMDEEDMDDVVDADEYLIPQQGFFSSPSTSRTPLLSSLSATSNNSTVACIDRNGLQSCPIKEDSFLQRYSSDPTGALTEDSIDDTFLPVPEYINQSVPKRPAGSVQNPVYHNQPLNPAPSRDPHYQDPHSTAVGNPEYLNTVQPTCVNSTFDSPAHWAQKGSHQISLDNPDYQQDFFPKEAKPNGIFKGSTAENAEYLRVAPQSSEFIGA
Procedure, shortened: as §1

EGFR L858R/C797S = EGFR L858R/C797S (Homo sapiens, UniProt P00533, C797S/L858R); assay: Biochemical EGFR kinase inhibition assay (Lance Ultra TR-FRET), double mutant L858R/C797S
EGFR L858R/C797S, sequence (P00533 25-1210 C797S/L858R): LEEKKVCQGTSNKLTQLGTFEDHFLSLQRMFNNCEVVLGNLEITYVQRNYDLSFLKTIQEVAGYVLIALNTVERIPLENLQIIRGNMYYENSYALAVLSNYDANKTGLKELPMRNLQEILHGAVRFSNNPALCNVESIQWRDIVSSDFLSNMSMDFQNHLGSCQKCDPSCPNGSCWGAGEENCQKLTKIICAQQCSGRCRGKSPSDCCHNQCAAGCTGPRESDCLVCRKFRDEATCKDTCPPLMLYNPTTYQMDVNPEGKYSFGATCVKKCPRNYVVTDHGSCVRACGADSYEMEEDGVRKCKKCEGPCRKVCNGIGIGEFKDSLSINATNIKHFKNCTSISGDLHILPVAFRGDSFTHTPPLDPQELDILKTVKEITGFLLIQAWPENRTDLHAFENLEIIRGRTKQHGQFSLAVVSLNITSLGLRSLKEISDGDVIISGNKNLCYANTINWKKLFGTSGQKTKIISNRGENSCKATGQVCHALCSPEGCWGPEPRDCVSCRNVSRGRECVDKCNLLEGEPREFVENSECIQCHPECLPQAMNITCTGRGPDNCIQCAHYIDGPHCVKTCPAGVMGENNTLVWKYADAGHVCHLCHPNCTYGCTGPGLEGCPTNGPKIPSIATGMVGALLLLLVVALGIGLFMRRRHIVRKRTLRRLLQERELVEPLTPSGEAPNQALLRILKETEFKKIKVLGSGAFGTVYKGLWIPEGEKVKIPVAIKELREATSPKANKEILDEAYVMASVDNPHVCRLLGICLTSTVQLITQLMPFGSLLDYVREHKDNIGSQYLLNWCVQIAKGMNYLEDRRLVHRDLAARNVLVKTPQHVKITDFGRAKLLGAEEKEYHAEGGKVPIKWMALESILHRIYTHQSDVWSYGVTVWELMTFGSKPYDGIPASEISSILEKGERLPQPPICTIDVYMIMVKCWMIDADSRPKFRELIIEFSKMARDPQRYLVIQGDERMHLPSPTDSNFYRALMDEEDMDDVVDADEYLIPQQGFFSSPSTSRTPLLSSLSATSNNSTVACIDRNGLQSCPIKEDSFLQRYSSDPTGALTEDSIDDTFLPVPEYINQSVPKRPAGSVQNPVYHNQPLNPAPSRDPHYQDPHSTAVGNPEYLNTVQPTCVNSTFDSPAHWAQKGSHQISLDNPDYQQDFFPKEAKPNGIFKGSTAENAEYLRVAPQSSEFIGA
Procedure, shortened: as §1

[1] = ATP at Km, read-out: IC50 Del19/C797S (nM), Km ATP
[2] = IC50 Del19/C797S (nM), 100 μM ATP
[3] = ATP at Km, read-out: IC50 L858R/T790M/C797S (nM), Km ATP
[4] = IC50 L858R/T790M/C797S (nM), 100 μM ATP
[5] = ATP at Km, read-out: IC50 Del19/T790M/C797S (nM), Km ATP
[6] = IC50 Del19/T790M/C797S (nM), 100 μM ATP
[7] = ATP at Km, read-out: IC50 WT (nM), Km ATP
[8] = ATP at Km, read-out: IC50 L858R/C797S (nM), Km ATP
[9] = IC50 L858R/C797S (nM), 100 μM ATP
[10] = Km ATP, read-out: IC50 Del19/C797S (nM) Km ATP
[11] = Km ATP, read-out: IC50 L858R/T790M/C797S (nM) Km ATP
[12] = Km ATP, read-out: IC50 Del19/T790M/C797S (nM) Km ATP
[13] = Km ATP, read-out: IC50 WT (nM) Km ATP
[14] = Km ATP, read-out: IC50 L858R/C797S (nM) Km ATP

EGFR Del19/C797S, sequence (P00533 with tags, fused parts or gaps DEL746-750/C797S): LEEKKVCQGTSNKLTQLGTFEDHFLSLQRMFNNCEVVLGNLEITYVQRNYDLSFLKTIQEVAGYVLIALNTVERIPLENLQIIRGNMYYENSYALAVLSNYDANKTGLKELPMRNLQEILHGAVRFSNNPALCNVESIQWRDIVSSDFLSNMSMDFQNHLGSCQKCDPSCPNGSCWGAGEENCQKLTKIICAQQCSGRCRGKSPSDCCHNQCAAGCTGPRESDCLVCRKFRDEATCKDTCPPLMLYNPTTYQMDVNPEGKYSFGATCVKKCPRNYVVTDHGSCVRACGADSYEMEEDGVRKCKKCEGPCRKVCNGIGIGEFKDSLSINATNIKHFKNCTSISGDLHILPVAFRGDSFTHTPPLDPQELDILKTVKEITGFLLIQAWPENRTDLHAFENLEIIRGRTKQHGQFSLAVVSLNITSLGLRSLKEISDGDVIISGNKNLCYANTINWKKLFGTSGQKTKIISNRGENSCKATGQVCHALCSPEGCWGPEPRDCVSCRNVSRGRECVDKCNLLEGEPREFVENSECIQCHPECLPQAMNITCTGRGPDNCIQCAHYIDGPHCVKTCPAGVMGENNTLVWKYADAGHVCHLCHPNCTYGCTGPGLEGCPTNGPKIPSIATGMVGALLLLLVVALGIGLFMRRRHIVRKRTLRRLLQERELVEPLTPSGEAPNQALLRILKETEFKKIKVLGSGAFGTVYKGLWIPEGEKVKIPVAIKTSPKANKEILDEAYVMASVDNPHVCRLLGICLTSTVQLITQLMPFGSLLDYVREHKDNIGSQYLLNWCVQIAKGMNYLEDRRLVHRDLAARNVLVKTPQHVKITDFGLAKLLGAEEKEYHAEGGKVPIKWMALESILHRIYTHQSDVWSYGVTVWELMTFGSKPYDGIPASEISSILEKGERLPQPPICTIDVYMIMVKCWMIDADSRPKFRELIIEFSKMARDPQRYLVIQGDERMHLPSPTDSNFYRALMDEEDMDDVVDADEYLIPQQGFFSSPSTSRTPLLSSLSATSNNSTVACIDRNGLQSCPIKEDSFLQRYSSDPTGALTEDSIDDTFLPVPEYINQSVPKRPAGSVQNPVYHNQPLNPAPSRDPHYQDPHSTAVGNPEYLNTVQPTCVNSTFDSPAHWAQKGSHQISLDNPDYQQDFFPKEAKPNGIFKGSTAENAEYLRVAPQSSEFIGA

Compound	IC50 (EGFR Del19/C797S; [1])	IC50 (EGFR Del19/C797S; [2])	IC50 (EGFR L858R/T790M/C797S; [3])	IC50 (EGFR L858R/T790M/C797S; [4])	IC50 (EGFR Del19/T790M/C797S; [5])	IC50 (EGFR Del19/T790M/C797S; [6])	IC50 (EGFR wildtype (WT); [7])	IC50 (EGFR wildtype (WT); IC50 WT (nM), 100 μM ATP)	IC50 (EGFR L858R/C797S; [8])	IC50 (EGFR L858R/C797S; [9])	IC50 (EGFR Del19/C797S; Km ATP, read-out: IC50 Del19/C797S (nM), Km ATP)	IC50 (EGFR L858R/T790M/C797S; Km ATP, read-out: IC50 L858R/T790M/C797S (nM), Km ATP)	IC50 (EGFR Del19/T790M/C797S; Km ATP, read-out: IC50 Del19/T790M/C797S (nM), Km ATP)	IC50 (EGFR wildtype (WT); Km ATP, read-out: IC50 WT (nM), Km ATP)	IC50 (EGFR L858R/C797S; Km ATP, read-out: IC50 L858R/C797S (nM), Km ATP)	IC50 (EGFR Del19/C797S; [10])	IC50 (EGFR L858R/T790M/C797S; [11])	IC50 (EGFR Del19/T790M/C797S; [12])	IC50 (EGFR wildtype (WT); [13])	IC50 (EGFR L858R/C797S; [14])
CC1(CO)CCN(c2cc(Nc3ccnc(-c4cnn(S(=O)(=O)C5CC5)c4)n3)ncc2C#Cc2cnn(C3CCOCC3)c2)CC1 [Example 95, (1-(2-((2-(1-(Cyclopropylsulfonyl)-1H-pyrazol-4-yl)pyrimidin-4-yl)amino)-5-((1-(tetrahydro-2H-pyran-4-yl)-1H-pyrazol-4-yl)ethynyl)pyridin-4-yl)-4-methylpiperidin-4-yl)methanol]		2.3 nM		2 nM		1.6 nM		1040 nM		4.1 nM						2.7 nM	0.9 nM	1.5 nM	5 nM	1.4 nM
O=S(=O)(C1CC1)n1cc(-c2nccc(Nc3cc(NC[C@H]4CC[C@H](O)CC4)c(C#Cc4cnn(C(F)F)c4)cn3)n2)cn1 [Example 307, (1r,4r)-4-(((2-((2-(1-(Cyclopropylsulfonyl)-1H-pyrazol-4-yl)pyrimidin-4-yl)amino)-5-((1-(difluoromethyl)-1H-pyrazol-4-yl)ethynyl)pyridin-4-yl)amino)methyl)cyclohexan-1-ol]	17.2 nM	37.3 nM	0.3 nM	35.1 nM	14.7 nM	29.6 nM	87.7 nM	> 10000 nM	21.3 nM	44.2 nM										
CN1CCC2(CC1)CCN(c1cc(Nc3ccnc(-c4cnn(S(=O)(=O)C5CC5)c4)n3)ncc1C#Cc1cnn(C3CC3)c1)CC2 [Example 319, N-(5-((1-Cyclopropyl-1H-pyrazol-4-yl)ethynyl)-4-(9-methyl-3,9-diazaspiro[5.5]undecan-3-yl)pyridin-2-yl)-2-(1-(cyclopropylsulfonyl)-1H-pyrazol-4-yl)pyrimidin-4-amine]		3.2 nM		0.3 nM		0.3 nM		4540 nM		17.1 nM										
CC1(CO)CCN(c2cc(Nc3ccnc(-c4cnn(S(=O)(=O)C5CC5)c4)n3)ncc2C#Cc2ccccc2F)CC1 [Example 257, (1-(2-((2-(1-(Cyclopropylsulfonyl)-1H-pyrazol-4-yl)pyrimidin-4-yl)amino)-5-((2-fluorophenyl)ethynyl)pyridin-4-yl)-4-methylpiperidin-4-yl)methanol]		10.7 nM		23.1 nM		19.4 nM		> 10000 nM		143 nM										
CN1CCC(C#Cc2cnc(Nc3ccnc(-c4cnn(S(=O)(=O)C5CC5)c4)n3)cc2N2CCC(C)(CO)CC2)CC1 [Example 182, (1-(2-((2-(1-(Cyclopropylsulfonyl)-1H-pyrazol-4-yl)pyrimidin-4-yl)amino)-5-((1-methylpiperidin-4-yl)ethynyl)pyridin-4-yl)-4-methylpiperidin-4-yl)methanol]	0.4 nM	0.3 nM	0.04 nM	0.1 nM	0.1 nM	0.1 nM	1.8 nM	648 nM	0.4 nM	1.7 nM										

Further molecules by falling IC50 (EGFR Del19/C797S; [2]), results first:

IC50 (EGFR Del19/C797S; [1])	IC50 (EGFR Del19/C797S; [2])	IC50 (EGFR L858R/T790M/C797S; [3])	IC50 (EGFR L858R/T790M/C797S; [4])	IC50 (EGFR Del19/T790M/C797S; [5])	IC50 (EGFR Del19/T790M/C797S; [6])	IC50 (EGFR wildtype (WT); [7])	IC50 (EGFR wildtype (WT); IC50 WT (nM), 100 μM ATP)	IC50 (EGFR L858R/C797S; [8])	IC50 (EGFR L858R/C797S; [9])	IC50 (EGFR Del19/C797S; Km ATP, read-out: IC50 Del19/C797S (nM), Km ATP)	IC50 (EGFR L858R/T790M/C797S; Km ATP, read-out: IC50 L858R/T790M/C797S (nM), Km ATP)	IC50 (EGFR Del19/T790M/C797S; Km ATP, read-out: IC50 Del19/T790M/C797S (nM), Km ATP)	IC50 (EGFR wildtype (WT); Km ATP, read-out: IC50 WT (nM), Km ATP)	IC50 (EGFR L858R/C797S; Km ATP, read-out: IC50 L858R/C797S (nM), Km ATP)	IC50 (EGFR Del19/C797S; [10])	IC50 (EGFR L858R/T790M/C797S; [11])	IC50 (EGFR Del19/T790M/C797S; [12])	IC50 (EGFR wildtype (WT); [13])	IC50 (EGFR L858R/C797S; [14])	Compound
	44.8 nM		8.9 nM		1.5 nM		> 10000 nM		97.6 nM											O=S(=O)(C1CC1)n1cc(-c2nccc(Nc3cc(N4CCC(O)CC4)c(C#Cc4csc(CF)n4)cn3)n2)cn1 [Example 212, 1-(2-((2-(1-(Cyclopropylsulfonyl)-1H-pyrazol-4-yl)pyrimidin-4-yl)amino)-5-((2-(fluoromethyl)thiazol-4-yl)ethynyl)pyridin-4-yl)piperidin-4-ol]
	24.2 nM		5 nM		4.5 nM		> 10000 nM		143 nM											Cn1cc(C#Cc2cnc(Nc3ccnc(-c4cnn(S(=O)(=O)C5CC5)c4)n3)cc2N2CCC(=O)CC2)cn1 [Example 7, 1-(2-((2-(1-(Cyclopropylsulfonyl)-1H-pyrazol-4-yl)pyrimidin-4-yl)amino)-5-((1-methyl-1H-pyrazol-4-yl)ethynyl)pyridin-4-yl)piperidin-4-one]
24.2 nM	12.4 nM	0.8 nM	3.1 nM	1.6 nM	1.9 nM	252 nM	> 10000 nM	4.1 nM	130 nM											CC1(CO)CCN(c2cc(Nc3ccnc(-c4cnn(CC(F)F)c4)n3)ncc2C#Cc2cnn(C(F)(F)F)c2)CC1 [Example 267, (1-(2-((2-(1-(2,2-Difluoroethyl)-1H-pyrazol-4-yl)pyrimidin-4-yl)amino)-5-((1-(trifluoromethyl)-1H-pyrazol-4-yl)ethynyl)pyridin-4-yl)-4-methylpiperidin-4-yl)methanol]
	7.3 nM		1.6 nM		2 nM		> 10000 nM		40.8 nM	5 nM	0.7 nM	1.6 nM	26 nM	10.5 nM						O=S(=O)(C1CC1)n1cc(-c2nccc(Nc3cc(N[C@H]4CC[C@@H](CO)CC4)c(C#Cc4cnn(CC(F)(F)F)c4)cn3)n2)cn1 [Example 340, ((1s,4s)-4-((2-((2-(1-(Cyclopropylsulfonyl)-1H-pyrazol-4-yl)pyrimidin-4-yl)amino)-5-((1-(2,2,2-trifluoroethyl)-1H-pyrazol-4-yl)ethynyl)pyridin-4-yl)amino)cyclohexyl)methanol]
2.8 nM	6.8 nM		1.7 nM	1.1 nM	4.4 nM	12.6 nM	7270 nM	1.7 nM	15.9 nM											CC(C)(O)CC#Cc1cnc(Nc2ccnc(-c3cnn(S(=O)(=O)C4CC4)c3)n2)cc1N1CCC(C)(CO)CC1 [Example 284, 5-(6-((2-(1-(Cyclopropylsulfonyl)-1H-pyrazol-4-yl)pyrimidin-4-yl)amino)-4-(4-(hydroxymethyl)-4-methylpiperidin-1-yl)pyridin-3-yl)-2-methylpent-4-yn-2-ol]
	4.4 nM		0.7 nM		0.9 nM		> 10000 nM		12.9 nM						3 nM	0.5 nM	1.1 nM	31.9 nM	2.8 nM	CC(O)C1CCN(c2cc(Nc3ccnc(-c4cnn(S(=O)(=O)C5CC5)c4)n3)ncc2C#Cc2cnn(C)c2)CC1 (stereo not drawn) [Example 10, 1-(1-(2-((2-(1-(Cyclopropylsulfonyl)-1H-pyrazol-4-yl)pyrimidin-4-yl)amino)-5-((1-methyl-1H-pyrazol-4-yl)ethynyl)pyridin-4-yl)piperidin-4-yl)ethan-1-ol]
0.4 nM	0.7 nM	0.2 nM	0.5 nM	0.5 nM	0.6 nM	2.2 nM	1270 nM	0.9 nM	6.6 nM											CC1(CO)CCN(c2cc(Nc3ccnc(-c4cnn(S(=O)(=O)C5CC5)c4)n3)ncc2C#Cc2ncc(CN3CCOCC3)cn2)CC1 [Example 193, (1-(2-((2-(1-(Cyclopropylsulfonyl)-1H-pyrazol-4-yl)pyrimidin-4-yl)amino)-5-((5-(morpholinomethyl)pyrimidin-2-yl)ethynyl)pyridin-4-yl)-4-methylpiperidin-4-yl)methanol]
